Measurements as given in paper PMC9685055, “Biological activity of new bioactive steroids deriving from biotransformation of cortisone” (Microbial Cell Factories, 2022).

What was measured:
cyclooxygenase (COX) = target: T1, cyclooxygenase (COX) (Ovis aries, UniProt P05979); test: Cyclooxygenase inhibitory assay (fluorescence COX activity kit); type: biochemical; settings: purified COX preparation, 0.1, 1, 10 and 100 µM, 5 min at 25 °C
T1 construct: purchased Cayman 700200
T1 sequence (P05979 25-600): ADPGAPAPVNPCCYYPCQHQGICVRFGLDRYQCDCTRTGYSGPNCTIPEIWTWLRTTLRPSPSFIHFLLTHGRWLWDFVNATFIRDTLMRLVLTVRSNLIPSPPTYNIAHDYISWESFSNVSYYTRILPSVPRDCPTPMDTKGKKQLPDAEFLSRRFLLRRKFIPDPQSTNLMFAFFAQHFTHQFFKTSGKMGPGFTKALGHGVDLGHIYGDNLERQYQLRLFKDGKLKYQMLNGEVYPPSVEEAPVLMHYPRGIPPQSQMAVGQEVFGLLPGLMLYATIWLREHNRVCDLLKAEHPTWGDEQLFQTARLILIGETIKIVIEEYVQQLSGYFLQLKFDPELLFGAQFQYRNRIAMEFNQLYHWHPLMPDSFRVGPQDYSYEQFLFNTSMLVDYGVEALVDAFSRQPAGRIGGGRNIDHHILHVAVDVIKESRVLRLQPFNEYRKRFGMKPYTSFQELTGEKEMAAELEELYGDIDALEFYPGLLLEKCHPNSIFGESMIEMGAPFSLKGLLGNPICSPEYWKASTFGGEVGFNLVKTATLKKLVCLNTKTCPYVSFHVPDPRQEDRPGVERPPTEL
Experimental: Cyclooxygenase (COX) activity assay was determined by using a fluorescence COX activity assay kit (Cayman, No. 700200) for detecting COX-1 and COX-2 activity in purified enzyme and tissue homogenate preparations. The assay was conducted by monitoring the appearance of fluorescent compound resofurin in accordance to the supplier recommendation. Aspirin (acetylsalicylic acid; 50 µM) served as positive control. The test compounds were dissolved in 1–2% DMSO (v/v) at 4 different concentrations (0.1, 1, 10 and 100 µM) and added to a purified COX preparation. A 1–2% DMSO solution was added to control plates. The plates were shaken for a few seconds and incubated for 5 min at 25 °C. The fluorescence was measured by using an excitation wavelength of 540 nm and an emission wavelength of 590 nm. Average fluorescent values were calculated for all the samples (n = 3/group) in order to determine the percentage of inhibition in respect to control (i.e. untreated) plates.

[1] = target: T2, human glucocorticoid receptor (NR3C1) (Homo sapiens, UniProt P04150); test: Glucocorticoid receptor transactivation reporter assay; type: cell-based; settings: 10 µM, 24 h, luciferase reporter cells
T2 construct: constitutive high-level expression of full length, unmodified human glucocorticoid receptor (NR3C1)
T2 sequence (P04150 1-777): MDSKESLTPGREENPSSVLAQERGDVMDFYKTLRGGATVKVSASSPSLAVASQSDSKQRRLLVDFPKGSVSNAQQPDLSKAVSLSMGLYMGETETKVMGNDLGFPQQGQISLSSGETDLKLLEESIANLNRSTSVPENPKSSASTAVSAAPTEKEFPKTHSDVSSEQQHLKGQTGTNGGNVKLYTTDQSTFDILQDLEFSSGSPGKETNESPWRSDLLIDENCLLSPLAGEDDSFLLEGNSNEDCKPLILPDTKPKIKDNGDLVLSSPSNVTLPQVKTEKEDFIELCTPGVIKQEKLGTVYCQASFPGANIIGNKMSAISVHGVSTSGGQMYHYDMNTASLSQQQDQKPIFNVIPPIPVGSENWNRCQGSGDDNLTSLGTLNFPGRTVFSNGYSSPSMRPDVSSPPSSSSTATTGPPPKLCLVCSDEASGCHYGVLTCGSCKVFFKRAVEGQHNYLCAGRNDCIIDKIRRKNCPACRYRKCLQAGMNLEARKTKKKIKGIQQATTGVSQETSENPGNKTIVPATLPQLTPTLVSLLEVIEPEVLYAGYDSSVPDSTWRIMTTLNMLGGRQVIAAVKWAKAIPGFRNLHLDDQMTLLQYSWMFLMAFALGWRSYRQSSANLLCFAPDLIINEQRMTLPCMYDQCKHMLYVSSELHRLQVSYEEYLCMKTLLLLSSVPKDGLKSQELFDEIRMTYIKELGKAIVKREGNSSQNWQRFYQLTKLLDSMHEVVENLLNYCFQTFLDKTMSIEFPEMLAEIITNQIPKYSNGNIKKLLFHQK
Experimental: Glucocorticoid receptor transactivation assays kit was obtained from Indigo Biosciences (Human Glucocorticoid Receptor Reporter Assay Kit, Product #IB0020-32; Indigo Biosciences, State College, PA, USA) and was utilized to assess the activation of human glucocorticoid receptor by SCA and/or SCB. Briefly, stocks of the tested compounds were prepared and diluted in a medium provided by the manufacturer. Frozen reporter cells provided in the assay kit were thawed and compound dilutions were added immediately. Cells were incubated for 24 h and the activation response was measured on a luminometer (Perkin-Elmer, MA, USA). The cells consisted of non-human mammalian cells engineered by Indigo Biosciences to provide constitutive high-level expression of full length, unmodified human glucocorticoid receptor (NR3C1). The nonhuman mammalian reporter cells included a luciferase reporter gene functionally linked to a human glucocorticoid receptor-responsive promoter. The cells are engineered so that only interactions with the human receptor will induce luciferase expression in the treated reporter cells to quantitate nuclear receptor activation. Positive control ligand performance was measured by the manufacturer and provided in the technical manuals thus allowing accurate comparison for assay performance. […]

| Compound | effect on COX activity (cyclooxygenase (COX)) | glucocorticoid receptor activation [1] |
| --- | --- | --- |
| Cc1ccc(O)c2c1CCC1C3CC[C@](O)(C(=O)CO)[C@@]3(C)CC(=O)[C@@]21O (stereo partly drawn) [SCA, 1,9β,17,21‐tetrahydoxy‐4‐methyl‐19‐nor‐9β‐pregna‐1,3,5(10)‐trien‐11,20‐dione] | barely affected COX activity only at the lower concentration tested (0.1 µM) | activated glucocorticoid receptors |
| Cc1ccc(O)c2c1CCC1C3CC[C@](O)([C@H](O)CO)[C@@]3(C)CC(=O)[C@@]21O (stereo partly drawn) [SCB, 1,9β,17,20β,21‐ pentahydoxy‐4‐methyl‐19‐nor‐9β‐pregna‐1,3,5(10)‐trien‐11‐one] | inhibited COX activity at all concentrations tested in a dose-dependent trend | activated glucocorticoid receptors |
